# Measured values reported in patent publication EP0799188B1, “AMIDES OF MONO AND DICARBOXYLIC ACIDS WITH GLYCOSAMINES, SELECTIVELY ACTIVE ON THE CANNABINOID PERIPHERAL RECEPTOR” (LIFEGROUP S.p.A., priority 1994, dated 1996).
# Several values for one entry are separate records, joined by “and”; a condition that tells them apart may be missing. Equal values may be shown once. Read-outs that look alike come from different tables or passages of the source.
# Tests used:
# [1] = solubility in organic solvents; type: physicochemical; details: organic solvent or mixture, read-out: solubility in org. sol.
# RBL-2H3 cells = assay: 3H-serotonin release induced by ADNP/DNP.HSA immunogenic stimulation; type: cell-based, rat; details: for effect on serotonin release (RBL cells immunogenic activation): statement in words on Table 3
# CB2 receptor = molecular target: T1, CB2 receptor (Rattus norvegicus, UniProt Q9QZN9); assay: 3H-WIN 55,212-2 binding displacement on RBL-2H3 cell membranes; details: for IC50: RBL-2H3 cell membranes, 1% DMSO, means ± SEM
# T1 construct: 30 µg membrane proteins prepared in item a); endogenous in cells; host or cells: RBL-2H3 cells (plasma membrane preparation)
# T1 sequence (Q9QZN9 1-360): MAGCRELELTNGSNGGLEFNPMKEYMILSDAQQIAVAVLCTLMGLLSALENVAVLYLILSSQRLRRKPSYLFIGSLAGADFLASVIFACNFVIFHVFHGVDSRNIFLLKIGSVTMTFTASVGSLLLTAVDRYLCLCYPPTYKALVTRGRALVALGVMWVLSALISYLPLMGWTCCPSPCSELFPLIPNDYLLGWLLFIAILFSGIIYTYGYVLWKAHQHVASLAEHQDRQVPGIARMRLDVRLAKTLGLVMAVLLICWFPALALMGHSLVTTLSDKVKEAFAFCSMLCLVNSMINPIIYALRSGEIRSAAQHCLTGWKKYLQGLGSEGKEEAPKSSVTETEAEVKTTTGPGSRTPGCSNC
# [2] = Rattus norvegicus, RBL-2H3, read-out: ED50 (µm)
# [3] = Rattus norvegicus, RBL-2H3, DMSO 1%, 100µM
# [4] = Rattus norvegicus, RBL-2H3, concentration inhibiting by 50% the net release of 3H serotonin, 0.2% DMSO, 15 minutes release period, means ± SEM, read-out: EC50
# [5] = Rattus norvegicus, RBL-2H3, DMSO 0.2%, 100µM
compound,measurement,setting,value
"CCCCCCCCCCCCCCCC(=O)N[C@@H](CO)C(=O)O [Example 1, N-palmitoyl-L-serine]",water solubility,water solubility,slightly soluble
same,solubility,[1]; in DMSO,> 10000 µg/mL
same,solubility,[1]; in ethanol,> 10000 µg/mL
same,3H-serotonin net release (%),"RBL-2H3 cells; 100µM, 0.1% DMSO and 0.1% ethanol",0%
same,effect on serotonin release (RBL cells immunogenic activation),RBL-2H3 cells,can inhibit the effects induced by mast cell activation
same,IC50,CB2 receptor; read-out: IC50,0.04 nM and 0.05 nM
same,Displacement (%),"CB2 receptor; competitor 10 µM, amides in 0.1% DMSO, Anandamide and Nabilone in 0.1% ethanol",100%
"CCCCCCCCCCCC(=O)N1CC(O)C[C@H]1C(=O)O (stereo partly drawn) [Example 17, N-lauroyl-4-hydroxy-L-proline]",water solubility,water solubility,slightly soluble
same,solubility,"water solubility; phosphate buffer, pH 7.4, aqueous buffer",> 10000 µg/mL
same,solubility,[1]; in DMSO,> 10000 µg/mL
same,solubility,[1]; in ethanol,> 10000 µg/mL
"CCCCCc1cc(O)c2c(c1)OC(C)(C)C1CC=C(C)CC21 (stereo not shown) [Δ 8-THC, Δ8-tetrahydrocannabinol, reference compound]",inhibition at 25 µM,"RBL-2H3 cells; Rattus norvegicus, RBL-2H3, read-out: 3H-serotonin net release inhibition (%)",100%
same,EC50,"RBL-2H3 cells; Rattus norvegicus, RBL-2H3, read-out: ED50 (µM)",5 µM
same,EC50,RBL-2H3 cells; [2],5 µM
same,effect on serotonin release (RBL cells immunogenic activation),RBL-2H3 cells,"able to inhibit, in a concentration-dependent way"
"CCCCCCCCCCCCCCCC(=O)NCCO [N-(2-hydroxyethyl)-hexadecanamide, reference compound]",3H-serotonin net release (%),"RBL-2H3 cells; 100µM, 1% DMSO and 1% ethanol",0%
same,EC50,"RBL-2H3 cells; Rattus norvegicus, RBL-2H3, inhibition of serotonin release, 1% DMSO and 1% ethanol, read-out: ED50 (µm)",2.6 µM
"NCCO [ethanolamine, reference compound]",inhibition at 12.5 µM,"RBL-2H3 cells; Rattus norvegicus, RBL-2H3, 12.5µM, -WIN, read-out: 3H-serotonin net release inhibition (%)",6%
"O=C(CCCCCCCC(=O)NC(CO)C(=O)O)NC(CO)C(=O)O (stereo not shown) [Example 12, N,N' -bis-(1-carboxy-2-hydroxyethyl)-nonandiamide]",water solubility,water solubility,slightly soluble
same,solubility,water solubility; water,> 10000 µg/mL
same,solubility,[1]; in DMSO,> 10000 µg/mL
same,solubility,[1]; in ethanol,> 10000 µg/mL
"CCCCCCCCCCCC(=O)N[C@@H](CO)C(=O)OC [Example 5, N-lauroyl-L-serine methylester]",water solubility,water solubility,slightly soluble
same,solubility,[1]; in DMSO,> 10000 µg/mL
same,solubility,[1]; in ethanol,> 10000 µg/mL
same,inhibition at 100 µM,RBL-2H3 cells; [3],61%
same,EC50,RBL-2H3 cells; [4],104 ± 59 µM
"C=C(C)[C@@H]1CCC(C)=C[C@H]1c1c(O)cc(CCCCC)cc1O [Cannabidiol, reference compound]",IC50,CB2 receptor; IC50 (nM),> 1000 nM
"CCCCCCCCCCCCCCCC(=O)NCCC(=O)O [Example 10, N-palmitoyl-β-alanine]",water solubility,water solubility,slightly soluble
same,solubility,[1]; in DMSO,> 5000 µg/mL
same,solubility,[1]; in ethanol,> 5000 µg/mL
same,inhibition at 100 µM,RBL-2H3 cells; [5],47%
same,EC50,"RBL-2H3 cells; Rattus norvegicus, RBL-2H3, concentration inhibiting by 50% the net release of 3H serotonin, 1% DMSO, 15 minutes release period, means ± SEM, read-out: EC50",30 µM
"CCCCCCCCCCCC(=O)NCC(=O)OC [Example 9, N-lauroyl-glycine methylester]",water solubility,water solubility,slightly soluble
same,solubility,[1]; in DMSO,> 10000 µg/mL
same,solubility,[1]; in ethanol,> 10000 µg/mL
same,inhibition at 100 µM,RBL-2H3 cells; [5],55%
"CCCCCCCC/C=C\CCCCCCCC(=O)N[C@H]1C(O)O[C@H](CO)[C@@H](O)[C@@H]1O (stereo partly drawn) [Example 16, N-oleoyl-D-glucosamine]",water solubility,water solubility,slightly soluble
same,solubility,[1]; in DMSO,> 5000 µg/mL
same,inhibition at 20 µM,"RBL-2H3 cells; Rattus norvegicus, RBL-2H3, DMSO 0.2%, 20µM",92%
same,inhibition at 100 µM,RBL-2H3 cells; [3],86%
same,EC50,RBL-2H3 cells; [4],2.4 ± 0.5 µM
same,EC50,"RBL-2H3 cells; Rattus norvegicus, RBL-2H3, inhibition of 3H-serotonin release, +anandamide (12.5 µM), read-out: ED50 (the source's name)",4.2 µM
same,EC50,"RBL-2H3 cells; Rattus norvegicus, RBL-2H3, inhibition of 3H-serotonin release, -anandamide, read-out: ED50 (the source's name)",2.9 µM
"CCCCCc1cc(O)c2c(c1)OC(C)(C)[C@@H]1CCC(C)=C[C@@H]21 [Δ9-THC, Δ9-tetrahydrocannabinol, reference compound]",3H-serotonin net release (%),"RBL-2H3 cells; 25µM, 0.1% DMSO and 0.1% ethanol",27%
same,EC50,RBL-2H3 cells; [2],5 µM
same,inhibition at 25 µM,"RBL-2H3 cells; Rattus norvegicus, RBL-2H3, 25µM, -anandamide, read-out: 3H-serotonin net release inhibition (%)",73%
same,EC50,"RBL-2H3 cells; Rattus norvegicus, RBL-2H3, read-out: ED50 (the source's name)",5 µM
same,effect on serotonin release (RBL cells immunogenic activation),RBL-2H3 cells,"able to inhibit, in a concentration-dependent way"
